Test results published in patent US4271155A, “Water soluble hydrazones of 3-formylrifamycin SV, antibacterial compositions thereof and method of use thereof” (Gruppo Lepetit S.p.A., priority 1979, dated 1981).
Where two headings read alike, the source gives them in different places.

How the values were obtained:
[1] = solubility in water / aqueous vehicles; assay type: physicochemical
Excerpt: The new rifamycins of formula I are in fact completely soluble in water or in mixture of water with other pharmaceutically acceptable solvents mixable with water. Useful solvents which can be admixed with water are for instance the polyhydric aliphatic alcohols such as ethylene glycol, propylene glycol, glycerine and mixtures thereof. These solutions can be added with buffers to maintain the pH range at a physiological value. For instance, ten grams of the compound of formula I wherein R is methyl, X is [drawing 3] are completely soluble in 100 ml of water buffered at pH 7.38 (phosphate buffer). The corresponding compound wherein A and B are both the sodium cation is even more soluble; in fact 100 ml of water can dissolve about fifty grams of said compound.

[2] = system: Staphylococcus aureus Tour; assay: ED50 in mice infected with Staphylococcus aureus Tour; assay type: in vivo; details: sc
Excerpt: (§1) The values of the ED50 of the compounds of examples 2, 3 and 4 against the two microbial strains and the toxicity (LD50) of the compounds are reported in the following Table

toxicity (LD50) in mice = details: mouse, in vivo
Excerpt: as §1

Escherichia coli = assay: ED50 in mice infected with Escherichia coli; assay type: in vivo; details: sc, read-out: ED50, E. coli
Excerpt: as §1

[3] = ip, read-out: LD50 in mice, i.p.
[4] = iv, read-out: LD50 in mice, i.v.

Row | Structure (SMILES) | amount that 100 ml of water can dissolve ([1]; per 100 ml of water, A and B both sodium cation) | ED50 [2] | LD50 (toxicity (LD50) in mice; [3]) | LD50 (toxicity (LD50) in mice; [4]) | ED50 (Escherichia coli) | completely soluble in 100 ml of water ([1]; per 100 ml of water buffered at pH 7.38 (phosphate buffer))
1 | COC1C=COC2(C)Oc3c(C)c(O)c4c(O)c(c(C=NN(C)CC(C)OP(=O)(O)O)c(O)c4c3C2=O)NC(=O)C(C)=CC=CC(C)C(O)C(C)C(O)C(C)C(OC(C)=O)C1C (centres unmarked) [listing 1 of 2 here] | about fifty | – | – | – | – | –
2 | COC1C=COC2(C)Oc3c(C)c(O)c4c(O)c(c(C=NN(C)CC(C)OP(=O)(O)O)c(O)c4c3C2=O)NC(=O)C(C)=CC=CC(C)C(O)C(C)C(O)C(C)C(OC(C)=O)C1C (centres unmarked) [Example 2, 3-[[[2-(Phosphonoxy)propyl]methylhydrazino]methyl]rifamycin SV] | – | 0.812 mg/kg | 770 mg/kg | 665 mg/kg | 98.5 mg/kg | –
3 | CCC(CN(C)N=Cc1c2c(O)c3c(O)c(C)c4c(c3c1O)C(=O)C(C)(OC=CC(OC)C(C)C(OC(C)=O)C(C)C(O)C(C)C(O)C(C)C=CC=C(C)C(=O)N2)O4)OP(=O)(O)O (centres unmarked) [Example 3, 3-[[[2-(Phosphonoxy)butyl]methylhydrazono]methyl]rifamycin SV] | – | 0.812 mg/kg | > 500 mg/kg | 525 mg/kg | 130 mg/kg | –
4 | COC1C=COC2(C)Oc3c(C)c(O)c4c(O)c(c(C=NN(C)CCOP(=O)(O)O)c(O)c4c3C2=O)NC(=O)C(C)=CC=CC(C)C(O)C(C)C(O)C(C)C(OC(C)=O)C1C (centres unmarked) [Example 4, 3-[[[2-(Phosphonoxy)ethyl]methylhydrazono]methyl]rifamycin SV] | – | 1.51 mg/kg | 592 mg/kg | 507 mg/kg | 106 mg/kg | –
5 | COC1C=COC2(C)Oc3c(C)c(O)c4c(O)c(c(C=NN(C)CC(C)OP(=O)(O)O)c(O)c4c3C2=O)NC(=O)C(C)=CC=CC(C)C(O)C(C)C(O)C(C)C(OC(C)=O)C1C (centres unmarked) [listing 2 of 2 here] | – | – | – | – | – | ten
